Results reported in patent publication US4760136A, “Chartreusin derivatives and salts thereof” (Ishihara Sangyo Kaisha, Ltd., priority 1984, dated 1988).
Where two headings read alike, the source gives them in different places.

Legend:
P-388 leukemia cells = assay: Antitumor activity: P-388 leukemia cells inoculated intraperitoneally, drug administered intravenously, BDF1 mice; assay type: in vivo; conditions: for response vs control in vivo at 50 mg/kg: dose d: 50 mg/kg × 3, i.v. on days 1, 5 and 9
Description: Into BDF1 mice were inoculated intraperitoneally P-388 leukemia cells at a rate of 1×10^6 cells/mouse, and each drug to be tested was administered intravenously on the first, fifth and ninth days after the inoculation. […] The drugs were as follows solutions prepared by adding physiological saline to each of compound Nos. 8, 9, 10, 11, 17, 34, 42, 59, 80 and 134; suspensions prepared by dispersing each of compound Nos. 41, 78, 98, 100, 130, 191, 212, 213, 215, 227 and 230 to 232 and a small amount of sodium carboxymethyl cellulose (Na.CMC) in physiological saline, […]

[1] = Acute toxicity, intravenous (once), ddY mice; assay type: in vivo; conditions: mouse, in vivo, formulated per Preparation Example
Description: In Table 7 are shown acute toxicity values (LD50, mg/kg) in ddY mice in the case of intravenously administering (once) each of the compounds of this invention in the form of preparations shown in the Preparation Examples shown in Table 7.

[2] = Mus musculus, P388, iv, dose b: 20 mg/kg × 3, i.v. on days 1, 5 and 9, BDF1 mice, P-388 i.p., read-out: T/C (%) of MST
[3] = Mus musculus, P388, iv, dose c: 40 mg/kg × 3, i.v. on days 1, 5 and 9, BDF1 mice, P-388 i.p., read-out: T/C (%) of MST
[4] = Mus musculus, P388, iv, dose f: 80 mg/kg × 3, i.v. on days 1, 5 and 9, BDF1 mice, P-388 i.p., read-out: T/C (%) of MST
[5] = Mus musculus, P388, iv, BDF1 mice, P-388 i.p., read-out: T/C (%) of MST
[6] = dose c: 40 mg/kg × 3, i.v. on days 1, 5 and 9, BDF1 mice, P-388 i.p.
[7] = dose b: 20 mg/kg × 3, i.v. on days 1, 5 and 9, BDF1 mice, P-388 i.p.

| SMILES | response vs control in vivo at 40 mg/kg (P-388 leukemia cells; [3]) | LD50 ([1]; iv) | response vs control in vivo at 80 mg/kg (P-388 leukemia cells; [4]) | further results |
| --- | --- | --- | --- | --- |
| COC1C(O)C(C)OC(OC2C(Oc3cccc4c(OC(=O)CCCNC(=O)OCc5ccccc5)c5c(=O)oc6ccc(C)c7c(=O)oc(c34)c5c67)OC(C)C3OC(c4ccccc4)OC32)C1O (stereo not drawn) [compound 76] | 184% | ≥ 40 mg/kg |  | response vs control in vivo at 20 mg/kg (P-388 leukemia cells; [2]): 135% |
| CCCC(=O)Oc1c2cccc(OC3OC(C)C4OC(c5ccco5)OC4C3OC3OC(C)C(O)C(OC)C3O)c2c2oc(=O)c3c(C)ccc4oc(=O)c1c2c43 (stereo not drawn) [compound 228] |  | ≥ 60 mg/kg |  | response vs control in vivo at 60 mg/kg (P-388 leukemia cells; Mus musculus, P388, iv, dose e: 60 mg/kg × 3, i.v. on days 1, 5 and 9, BDF1 mice, P-388 i.p., read-out: T/C (%) of MST): 140% |
| CO[C@H]1[C@@H](O)[C@@H](C)O[C@H](O[C@H]2[C@H](Oc3cccc4c(OC(=O)c5cccc(N(C)C)c5)c5c(=O)oc6ccc(C)c7c(=O)oc(c34)c5c67)O[C@H](C)[C@@H]3OC(C)(C)O[C@@H]32)[C@@H]1O [compound 209] | 134% | ≥ 80 mg/kg | 192% |  |
| COC1C(O)C(C)OC(OC2C(Oc3cccc4c(OC(=O)C(Cc5c[nH]c6ccccc56)NC(=O)OCc5ccccc5)c5c(=O)oc6ccc(C)c7c(=O)oc(c34)c5c67)OC(C)C3OC4(CCCCC4)OC32)C1O (stereo not drawn) [compound 133] |  | ≥ 100 mg/kg | 139% |  |
| COc1cccc(C(=O)Oc2c3cccc(O[C@@H]4O[C@H](C)[C@@H]5OC(c6ccccc6)O[C@@H]5[C@H]4O[C@H]4O[C@H](C)[C@H](O)[C@H](OC)[C@H]4O)c3c3oc(=O)c4c(C)ccc5oc(=O)c2c3c54)c1 (stereo partly drawn) [compound 193] |  | ≥ 40 mg/kg |  | response vs control in vivo at 10 mg/kg (P-388 leukemia cells; Mus musculus, P388, iv, dose a: 10 mg/kg × 3, i.v. on days 1, 5 and 9, BDF1 mice, P-388 i.p., read-out: T/C (%) of MST): 162% |
| COC1C(O)C(C)OC(OC2C(Oc3cccc4c(OC(=O)CNC(=O)OCc5ccccc5)c5c(=O)oc6ccc(C)c7c(=O)oc(c34)c5c67)OC(C)C3OC(c4ccccc4)OC32)C1O (stereo not drawn) [compound 104] | 137% |  |  |  |
| COC1C(O)C(C)OC(OC2C(Oc3cccc4c(OC(=O)COC(=O)c5ccccc5)c5c(=O)oc6ccc(C)c7c(=O)oc(c34)c5c67)OC(C)C3OC(c4ccccc4)OC32)C1O (stereo not drawn) [Compound No. 167] |  | ≥ 40 mg/kg |  | response vs control in vivo at 20 mg/kg (P-388 leukemia cells; [2]): 198% |
| COC1C(O)C(C)OC(OC2C(Oc3cccc4c(OC(=O)C(Cc5c[nH]c6ccccc56)NC(=O)OCc5ccccc5)c5c(=O)oc6ccc(C)c7c(=O)oc(c34)c5c67)OC(C)C3OC(c4cccc(C(F)(F)F)c4)OC32)C1O (stereo not drawn) [compound 101] | 171% | ≥ 80 mg/kg | 225% |  |
| CCCC(=O)Oc1c2cccc(OC3OC(C)C4OC(c5ccccc5)OC4C3OC3OC(C)C(O)C(OC)C3O)c2c2oc(=O)c3c(C)ccc4oc(=O)c1c2c43 (stereo not drawn) [Compound No. 191, 6-O-(n-Butyryl)-3',4'-O-Benzylidene-Chartreusin] |  | ≥ 40 mg/kg |  | response vs control in vivo at 20 mg/kg (P-388 leukemia cells; [2]): 155% |
| COC1C(O)C(C)OC(OC2C(Oc3cccc4c(OC(=O)C(Cc5ccccc5)NC(=O)OCc5ccccc5)c5c(=O)oc6ccc(C)c7c(=O)oc(c34)c5c67)OC(C)C3OC(C)(C)OC32)C1O (stereo not drawn) [compound 128] |  | ≥ 100 mg/kg |  | response vs control in vivo at 50 mg/kg (P-388 leukemia cells; [5]): 146% |
| CO[C@H]1[C@@H](O)[C@@H](C)O[C@H](O[C@H]2[C@H](Oc3cccc4c(OC(=O)CCCl)c5c(=O)oc6ccc(C)c7c(=O)oc(c34)c5c67)O[C@H](C)[C@@H]3OC(c4ccccc4F)O[C@@H]32)[C@@H]1O (stereo partly drawn) [compound 210] | 186% | ≥ 60 mg/kg |  |  |
| COC1C(O)C(C)OC(OC2C(Oc3cccc4c(OC(=O)CCNC=O)c5c(=O)oc6ccc(C)c7c(=O)oc(c34)c5c67)OC(C)C3OC(c4c(F)c(F)c(F)c(F)c4F)OC32)C1O (stereo not drawn) [compound 113] | 138% | ≥ 40 mg/kg |  |  |
| CO[C@H]1[C@@H](O)[C@@H](C)O[C@H](O[C@H]2[C@H](Oc3cccc4c(OC(=O)COC(=O)c5ccccc5)c5c(=O)oc6ccc(C)c7c(=O)oc(c34)c5c67)O[C@H](C)[C@@H]3OC(C)(C)O[C@@H]32)[C@@H]1O [compound 199] |  | ≥ 60 mg/kg |  | response vs control in vivo at 50 mg/kg (P-388 leukemia cells; [5]): 159% |
| CCC(C)C(=O)Oc1c2cccc(OC3OC(C)C4OC5(CCCCC5)OC4C3OC3OC(C)C(O)C(OC)C3O)c2c2oc(=O)c3c(C)ccc4oc(=O)c1c2c43 (stereo not drawn) [compound 241] |  | ≥ 80 mg/kg | 135% |  |
| C/C=C/C(=O)Oc1c2cccc(OC3OC(C)C4OC5(CCCCC5)OC4C3OC3OC(C)C(O)C(OC)C3O)c2c2oc(=O)c3c(C)ccc4oc(=O)c1c2c43 (stereo not drawn) [compound 221] |  |  |  | response vs control in vivo at 80 mg/kg (P-388 leukemia cells; Mus musculus, P388, iv, read-out: T/C (%) of MST): 168%; LD50 [1]: ≥ 80 mg/kg |
| COC1C(O)C(C)OC(OC2C(Oc3cccc4c(OC(=O)CCC(C)=O)c5c(=O)oc6ccc(C)c7c(=O)oc(c34)c5c67)OC(C)C3OC(C)(C)OC32)C1O (stereo not drawn) [Compound No. 156] | 160% | ≥ 80 mg/kg | 218% |  |
| C=CCCC(=O)Oc1c2cccc(OC3OC(C)C4OC(C)(C)OC4C3OC3OC(C)C(O)C(OC)C3O)c2c2oc(=O)c3c(C)ccc4oc(=O)c1c2c43 (stereo not drawn) [Compound No. 175] | 145% | ≥ 80 mg/kg | 208% |  |
| COC1C(O)C(C)OC(OC2C(Oc3cccc4c(OC(=O)CCNC(=O)CNC(=O)OCc5ccccc5)c5c(=O)oc6ccc(C)c7c(=O)oc(c34)c5c67)OC(C)C3OC(c4cccc(F)c4)OC32)C1O (stereo not drawn) [Compound No. 61] | 220% | ≥ 40 mg/kg |  | response vs control in vivo at 20 mg/kg (P-388 leukemia cells; [2]): 176% |
| COC1C(O)C(C)OC(OC2C(Oc3cccc4c(OC(=O)C(C)CNC(=O)C(F)(F)F)c5c(=O)oc6ccc(C)c7c(=O)oc(c34)c5c67)OC(C)C3OC(c4ccccc4)OC32)C1O (stereo not drawn) [Compound No. 12, 6-O-(N-Trifluoroacetyl-β-Amino-Isobutyryl)-3',4'-O-Benzylidene-Chartreusin] |  | ≥ 40 mg/kg |  | response vs control in vivo at 20 mg/kg (P-388 leukemia cells; [2]): 203%; T/C (%) of MST (P-388 leukemia cells; [6]): 241% |
| COC1C(O)C(C)OC(OC2C(Oc3cccc4c(OC(=O)CCNC(=O)c5ccccc5)c5c(=O)oc6ccc(C)c7c(=O)oc(c34)c5c67)OC(C)C3OC(c4ccc(Br)cc4)OC32)C1O (stereo not drawn) [compound 123] | 135% | ≥ 40 mg/kg |  |  |
| COC1C(O)C(C)OC(OC2C(Oc3cccc4c(OC(=O)CC(C)C)c5c(=O)oc6ccc(C)c7c(=O)oc(c34)c5c67)OC(C)C3OC(c4ccc(F)cc4)OC32)C1O (stereo not drawn) [Compound No. 159] | 171% | ≥ 40 mg/kg | 216% |  |
| COC1C(O)C(C)OC(OC2C(Oc3cccc4c(OC(=O)CCCCCNC(=O)C(F)(F)F)c5c(=O)oc6ccc(C)c7c(=O)oc(c34)c5c67)OC(C)C3OC(CC(C)=O)OC32)C1O (stereo not drawn) [compound 130] |  | ≥ 180 mg/kg |  | response vs control in vivo at 160 mg/kg (P-388 leukemia cells; Mus musculus, P388, iv, dose i: 160 mg/kg × 3, i.v. on days 1, 5 and 9, BDF1 mice, P-388 i.p., read-out: T/C (%) of MST): 141% |
| COC1C(O)C(C)OC(OC2C(Oc3cccc4c(OC(=O)c5cccc(Cl)c5)c5c(=O)oc6ccc(C)c7c(=O)oc(c34)c5c67)OC(C)C3OC(C)(C)OC32)C1O (stereo not drawn) [compound 226] | 145% |  |  |  |
| COC1C(O)C(C)OC(OC2C(Oc3cccc4c(OC(=O)CCNC=O)c5c(=O)oc6ccc(C)c7c(=O)oc(c34)c5c67)OC(C)C3OC(c4ccccc4)OC32)C1O (stereo not drawn) [Compound No. 45] | 220% |  |  | T/C (%) of MST (P-388 leukemia cells; [7]): 164% |
| COC1C(O)C(C)OC(OC2C(Oc3cccc4c(OC(=O)C(C)CNC(=O)C(F)(F)F)c5c(=O)oc6ccc(C)c7c(=O)oc(c34)c5c67)OC(C)C3OC(c4ccccc4)OC32)C1O (stereo not drawn) [Compound No. 44] |  |  | 217% | T/C (%) of MST (P-388 leukemia cells; [6]): 164% |
| COC1C(O)C(C)OC(OC2C(Oc3cccc4c(OC(=O)CCNC(=O)C(F)(F)F)c5c(=O)oc6ccc(C)c7c(=O)oc(c34)c5c67)OC(C)C3OC(c4ccccc4)OC32)C1O (stereo not drawn) [Compound No. 21] |  |  |  | response vs control in vivo at 20 mg/kg (P-388 leukemia cells; [2]): 210%; T/C (%) of MST (P-388 leukemia cells; [6]): 229% |
| COC1C(O)C(C)OC(OC2C(Oc3cccc4c(OC(=O)CCCOCc5ccccc5)c5c(=O)oc6ccc(C)c7c(=O)oc(c34)c5c67)OC(C)C3OC(c4ccccc4)OC32)C1O (stereo not drawn) [Compound No. 165, 6-O-(4-benzyloxy-n-butyryl)-3',4'-O-Benzylidene-Chartreusin] |  |  |  | response vs control in vivo at 20 mg/kg (P-388 leukemia cells; [2]): 189% |
| COC1C(O)C(C)OC(OC2C(Oc3cccc4c(OC(=O)CCNC=O)c5c(=O)oc6ccc(C)c7c(=O)oc(c34)c5c67)OC(C)C3OC(c4ccccc4)OC32)C1O (stereo not drawn) [Compound No. 20] | 248% |  |  | T/C (%) of MST (P-388 leukemia cells; [7]): 203% |
| COC1C(O)C(C)OC(OC2C(Oc3cccc4c(OC(=O)CCNC(=O)OCc5ccccc5)c5c(=O)oc6ccc(C)c7c(=O)oc(c34)c5c67)OC(C)C3OC(c4ccccc4)OC32)C1O (stereo not drawn) [compound 103] | 146% |  | 203% |  |
